One test concerns the target GSK3β (H350L) (Homo sapiens (Human), UniProt P49841). The note with it: read-out: GSK3β Ki.
The target of test [1] is CDK2/Cyclin E1 full length (Homo sapiens (Human), UniProt P24941). Briefly: CDK2/Cyclin E1 full length mobility shift assay. Type of test: biochemical.

Here are results for 26 compounds from patent US11014911B2, “CDK2 inhibitors” (Pfizer Inc., priority 2019, dated 2021).

By Ki is commonly meant the dissociation constant of the complex between target and ligand, obtained from inhibition or displacement.

Structures are written as SMILES.

Chain of GSK3β (H350L) (P49841 whole entry, stated change not applied): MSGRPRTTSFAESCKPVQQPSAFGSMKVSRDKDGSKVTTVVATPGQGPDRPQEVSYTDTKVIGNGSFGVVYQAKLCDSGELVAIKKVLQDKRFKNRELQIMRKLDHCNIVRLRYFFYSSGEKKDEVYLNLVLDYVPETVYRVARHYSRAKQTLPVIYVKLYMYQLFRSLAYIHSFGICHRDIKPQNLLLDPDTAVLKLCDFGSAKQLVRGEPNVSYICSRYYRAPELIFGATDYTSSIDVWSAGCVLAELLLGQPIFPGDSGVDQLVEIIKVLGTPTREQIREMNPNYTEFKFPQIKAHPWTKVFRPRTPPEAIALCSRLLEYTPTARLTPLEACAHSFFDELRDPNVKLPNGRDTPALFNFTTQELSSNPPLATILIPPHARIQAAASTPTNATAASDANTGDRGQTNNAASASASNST
Procedure for GSK3β (H350L): The assay was initiated with the addition of ATP, following 15 minutes pre-incubation of enzyme and inhibitor at room temperature in the reaction mixture. The reaction was stopped after 30 minutes at room temperature by the addition of 50 μL of 80 mM EDTA.

Turning to `Cc1cnc(CC(=O)Nc2cc([C@H]3CC[C@@H](OC(=O)NC4(CC(F)(F)F)CC4)C3)[nH]n2)cn1` [Example 455, (1R,3S)-3-(3-{[(5-methylpyrazin-2-yl)acetyl]amino}-1H-pyrazol-5-yl)cyclopentyl [1-2,2,2-trifluoroethyl)cyclopropyl] carbamate], the inhibitory constant (Ki) on GSK3β (H350L) was 21.3 nM; in test [1] it was 0.47 nM.

Consider `O=C(Cc1ccno1)Nc1cc([C@H]2CC[C@@H](OC(=O)NC3CCCC3)C2)[nH]n1` [Example 460, (1R,3S)-3-{3-[(1,2-oxazol-5-ylacetyl)amino]-1H-pyrazol-5-yl}cyclopentyl cyclopentylcarbamate], for which the Ki is 39.9 nM at GSK3β (H350L) and 1.62 nM in test [1].

Take `Cc1ncc(CC(=O)Nc2cc([C@H]3CC[C@@H](OC(=O)N[C@@H]4CCC[C@@H]4C)C3)[nH]n2)s1` [Example 463, (1R,3S)-3-(3-{[(2-methyl-1,3-thiazol-5-yl)acetyl]amino}-1H-pyrazol-5-yl)cyclopentyl [(1R,2S)-2-methylcyclopentyl]carbamate]: the Ki at GSK3β (H350L) worked out at 28.3 nM; in test [1], 0.55 nM.

`COc1ccc(CC(=O)Nc2cc([C@@H]3CC[C@H](OC(=O)NC4CCOCC4)C3)[nH]n2)cc1` [Example 501, (1S,3R)-3-(3-{[(4-methoxyphenyl)acetyl]amino}-1H-pyrazol-5-yl)cyclopentyl tetrahydro-2H-pyran-4-ylcarbamate]: the Ki at GSK3β (H350L) is 12.5 nM; in test [1], 1.43 nM.

With `Cn1cc(CC(=O)Nc2cc([C@H]3CC[C@@H](OC(=O)NC4(C)CCOCC4)C3)[nH]n2)cn1` [Example 506, (1R,3S)-3-(3-{[(1-methyl-1H-pyrazol-4-yl)acetyl]amino}-1H-pyrazol-5-yl)cyclopentyl (4-methyltetrahydro-2H-pyran-4-yl)carbamate], the figures for the Ki (at GSK3β (H350L); in test [1]) were 77.6 nM and 0.76 nM, respectively.

`COc1ncc(CC(=O)Nc2cc([C@H]3CC[C@@H](OC(=O)NC4(C)CCOCC4)C3)[nH]n2)s1` [Example 509, (1R,3S)-3-(3-{[(2-methoxy-1,3-thiazol-5-yl)acetyl]amino}-1H-pyrazol-5-yl)cyclopentyl (4-methyltetrahydro-2H-pyran-4-yl)carbamate]: the Ki was 30.2 nM on GSK3β (H350L) and 0.5 nM in test [1].

As to `Cc1cc(CC(=O)Nc2cc([C@@H]3CC[C@H](OC(=O)N[C@H]4CC[C@@H](O)CC4)C3)[nH]n2)ccn1` [Example 544, (1S,3R)-3-(3-{[(2-methylpyridin-4-yl)acetyl]amino}-1H-pyrazol-5-yl)cyclopentyl (cis-4-hydroxycyclohexyl)carbamate], the Ki at GSK3β (H350L) was 1.96 nM; in test [1], 0.54 nM.

Consider `Cc1ccc(CC(=O)Nc2cc([C@@H]3CC[C@H](OC(=O)N[C@H]4CC[C@@H](O)CC4)C3)[nH]n2)cn1` [Example 545, (1S,3R)-3-(3-{[(6-methylpyridin-3-yl)acetyl]amino}-1H-pyrazol-5-yl)cyclopentyl (cis-4-hydroxycyclohexyl)carbamate], for which the figures for the Ki (at GSK3β (H350L); in test [1]) were 2.2 nM and 0.39 nM, respectively.

Take `Cc1ccc(CC(=O)Nc2cc([C@@H]3CC[C@H](OC(=O)N[C@H]4CC[C@@H](O)CC4)C3)[nH]n2)nc1` [Example 546, (1S,3R)-3-(3-{[(5-methylpyridin-2-yl)acetyl]amino}-1H-pyrazol-5-yl)cyclopentyl (cis-4-hydroxycyclohexyl)carbamate]: the results for the Ki (on GSK3β (H350L); in test [1]) were 3.51 nM and 1.85 nM, respectively.

As to `Cc1cc(CC(=O)Nc2cc([C@@H]3CC[C@H](OC(=O)N[C@H]4CC[C@H](O)CC4)C3)[nH]n2)ccn1` [Example 547, (1S,3R)-3-(3-{[(2-methylpyridin-4-yl)acetyl]amino}-1H-pyrazol-5-yl)cyclopentyl (trans-4-hydroxycyclohexyl)carbamate], the inhibition constant Ki at GSK3β (H350L) was determined as 3.62 nM; in test [1], 0.61 nM.

`Cc1ccc(CC(=O)Nc2cc([C@@H]3CC[C@H](OC(=O)N[C@H]4CC[C@H](O)CC4)C3)[nH]n2)cn1` [Example 548, (1S,3R)-3-(3-{[(6-methylpyridin-3-yl)acetyl]amino}-1H-pyrazol-5-yl)cyclopentyl (trans-4-hydroxycyclohexyl)carbamate]: the Ki on GSK3β (H350L) came out at 2.1 nM; in test [1] it was 0.39 nM.

Consider `Cc1ccc(CC(=O)Nc2cc([C@@H]3CC[C@H](OC(=O)N[C@H]4CC[C@H](O)CC4)C3)[nH]n2)nc1` [Example 549, (1S,3R)-3-(3-{[(5-methylpyridin-2-yl)acetyl]amino}-1H-pyrazol-5-yl)cyclopentyl (trans-4-hydroxycyclohexyl)carbamate], for which the Ki came to 3.24 nM at GSK3β (H350L) and 0.9 nM in test [1].

As for `Cc1ncc(CC(=O)Nc2cc([C@@H]3CC[C@H](OC(=O)N[C@H]4CC[C@@H](O)CC4)C3)[nH]n2)s1` [Example 550, (1S,3R)-3-(3-{[(2-methyl-1,3-thiazol-5-yl)acetyl]amino}-1H-pyrazol-5-yl)cyclopentyl (cis-4-hydroxycyclohexyl)carbamate], the results for the Ki (on GSK3β (H350L); in test [1]) were 3.12 nM and 0.36 nM, respectively.

As to `Cc1ncc(CC(=O)Nc2cc([C@@H]3CC[C@H](OC(=O)N[C@H]4CC[C@H](O)CC4)C3)[nH]n2)s1` [Example 551, (1S,3R)-3-(3-{[(2-methyl-1,3-thiazol-5-yl)acetyl]amino}-1H-pyrazol-5-yl)cyclopentyl (trans-4-hydroxycyclohexyl)carbamate], the Ki on GSK3β (H350L) worked out at 2.94 nM; in test [1], 0.34 nM.

With `COc1cc(CC(=O)Nc2cc([C@@H]3CC[C@H](OC(=O)N[C@H]4CC[C@@H](O)CC4)C3)[nH]n2)ccn1` [Example 552, (1S,3R)-3-(3-{[(2-methoxypyridin-4-yl)acetyl]amino}-1H-pyrazol-5-yl)cyclopentyl (cis-4-hydroxycyclohexyl)carbamate], the Ki on GSK3β (H350L) was determined as 2.41 nM; in test [1], 0.29 nM.

As for `COc1ccc(CC(=O)Nc2cc([C@@H]3CC[C@H](OC(=O)N[C@H]4CC[C@@H](O)CC4)C3)[nH]n2)nc1` [Example 554, (1S,3R)-3-(3-{[(5-methoxypyridin-2-yl)acetyl]amino}-1H-pyrazol-5-yl)cyclopentyl (cis-4-hydroxycyclohexyl)carbamate], the Ki was determined as 5.11 nM on GSK3β (H350L) and 1.76 nM in test [1].

Regarding `COc1cc(CC(=O)Nc2cc([C@@H]3CC[C@H](OC(=O)N[C@H]4CC[C@H](O)CC4)C3)[nH]n2)ccn1` [Example 555, (1S,3R)-3-(3-{[(2-methoxypyridin-4-yl)acetyl]amino}-1H-pyrazol-5-yl)cyclopentyl (trans-4-hydroxycyclohexyl)carbamate], the Ki at GSK3β (H350L) is 3.58 nM; in test [1], 0.37 nM.

Consider `COc1ccc(CC(=O)Nc2cc([C@@H]3CC[C@H](OC(=O)N[C@H]4CC[C@H](O)CC4)C3)[nH]n2)nc1` [Example 557, (1S,3R)-3-(3-{[(5-methoxypyridin-2-yl)acetyl]amino}-1H-pyrazol-5-yl)cyclopentyl (trans-4-hydroxycyclohexyl)carbamate], for which the Ki on GSK3β (H350L) amounted to 2.6 nM; in test [1], 1.01 nM.

Turning to `C[C@]1(O)CC[C@@H](NC(=O)O[C@H]2CC[C@@H](c3cc(NC(=O)Cc4ccccc4)n[nH]3)C2)CC1` [Example 558, (1S,3R)-3-{3-[(phenylacetyl)amino]-1H-pyrazol-5-yl}cyclopentyl (cis-4-hydroxy-4-methylcyclohexyl)carbamate], the Ki at GSK3β (H350L) is 18.6 nM; in test [1], 0.41 nM.

For `C[C@]1(O)CC[C@H](NC(=O)O[C@H]2CC[C@@H](c3cc(NC(=O)Cc4ccccc4)n[nH]3)C2)CC1` [Example 559, (1S,3R)-3-{3-[(phenylacetyl)amino]-1H-pyrazol-5-yl}cyclopentyl (trans-4-hydroxy-4-methylcyclohexyl)carbamate], the Ki on GSK3β (H350L) turned out to be 8.58 nM; in test [1] it was 1.44 nM.

Turning to `C[C@]1(O)CC[C@@H](NC(=O)O[C@H]2CC[C@@H](c3cc(NC(=O)Cc4ccc(F)cc4)n[nH]3)C2)CC1` [Example 560, (1S,3R)-3-(3-{[(4-fluorophenyl)acetyl]amino}-1H-pyrazol-5-yl)cyclopentyl (cis-4-hydroxy-4-methylcyclohexyl)carbamate], the results for the Ki (at GSK3β (H350L); in test [1]) were 9.84 nM and 0.6 nM, respectively.

Regarding `Cc1ncc(CC(=O)Nc2cc([C@@H]3CC[C@H](OC(=O)N[C@H]4CC[C@@](C)(O)CC4)C3)[nH]n2)s1` [Example 562, (1S,3R)-3-(3-{[(2-methyl-1,3-thiazol-5-yl)acetyl]amino}-1H-pyrazol-5-yl)cyclopentyl (cis-4-hydroxy-4-methylcyclohexyl)carbamate], the inhibition constant Ki on GSK3β (H350L) was determined as 4.85 nM; in test [1], 0.43 nM.

On to `Cc1ncc(CC(=O)Nc2cc([C@@H]3CC[C@H](OC(=O)N[C@H]4CC[C@](C)(O)CC4)C3)[nH]n2)s1` [Example 563, (1S,3R)-3-(3-{[(2-methyl-1,3-thiazol-5-yl)acetyl]amino}-1H-pyrazol-5-yl)cyclopentyl (trans-4-hydroxy-4-methylcyclohexyl)carbamate], for which the Ki on GSK3β (H350L) turned out to be 4.35 nM; in test [1], 1.8 nM.

`COc1ccc(CC(=O)Nc2cc([C@@H]3CC[C@H](OC(=O)N[C@H]4CC[C@@](C)(O)CC4)C3)[nH]n2)cc1` [Example 564, (1S,3R)-3-(3-{[(4-methoxyphenyl)acetyl]amino}-1H-pyrazol-5-yl)cyclopentyl (cis-4-hydroxy-4-methylcyclohexyl)carbamate]: the figures for the Ki (on GSK3β (H350L); in test [1]) were 10.1 nM and 0.37 nM, respectively.

Consider `COc1ccc(CC(=O)Nc2cc([C@@H]3CC[C@H](OC(=O)N[C@H]4CC[C@](C)(O)CC4)C3)[nH]n2)cc1` [Example 565, (1S,3R)-3-(3-{[(4-methoxyphenyl)acetyl]amino}-1H-pyrazol-5-yl)cyclopentyl (trans-4-hydroxy-4-methylcyclohexyl)carbamate], for which the results for the Ki (at GSK3β (H350L); in test [1]) were 4.07 nM and 1.24 nM, respectively.

On to `COc1ccc(CC(=O)Nc2cc([C@H]3CC[C@@H](OC(=O)N[C@H]4CC[C@@](C)(O)CC4)C3)[nH]n2)cc1` [Example 566, (1R,3S)-3-(3-{[(4-methoxyphenyl)acetyl]amino}-1H-pyrazol-5-yl)cyclopentyl (cis-4-hydroxy-4-methylcyclohexyl)carbamate], for which the Ki amounted to 37.6 nM at GSK3β (H350L) and 0.79 nM in test [1].
